Values quoted from earlier work, collected in patent US20050074468A1, “Topical compositions containing nonimmunosuppressive cyclosporin derivatives for treating hair loss” (priority 2001, published 2005).

Test system: mouse's back
Conditions: relative to minoxidil

Substance: Cyclosporin A
- hair regrowth effect superior to minoxidil: about 100 times
